Read-outs that look alike come from different tables or passages of the source. Values belong to the molecule of their own block, whether it stands above or below them.
How the values were obtained:
[1] = Tissue distribution study in rats; assay type: in vivo, Sprague-Dawley rats; settings: for concentration in adrenal gland / concentration in brain / concentration in heart / concentration in kidney / concentration in liver / concentration in lung / concentration in lymph / concentration in plasma / concentration in spleen / concentration in thymus: n = 5; for Kp at 0.25 h / Kp at 0.5 h / Kp at 4 h: female, Sprague-Dawley, rat, oral, i.g. 10 mg/kg IMMH-010 maleate, read-out: T/P (tissue-to-plasma partition); for concentrations in tissues at 12 h: rat tissues, 12 h after oral 10 mg/kg IMMH-010 maleate; for tissues of main distribution: rats, oral 10 mg/kg IMMH-010 maleate
Procedure: Female Sprague-Dawley rats (200 ± 20 g, Vital River, Beijing, China) were kept in standard environmental conditions. Rats were fasted overnight with free access to water and randomly assigned to different groups before the experiments. All animal protocols were approved by the Institute Animal Care and Welfare Committee of the Institute of Materia Medica, Chinese Academy of Medical Sciences and Peking Union Medical College.
The tissue distribution study was performed 15 min, 30 min, 4 h and 12 h after i. g. administration of 10 mg/kg IMMH-010 maleate. Blood was collected and centrifuged at 5,000 rpm for 10 min. The heart, liver, brain, spleen, lung, kidney, adrenal gland, thymus, and lymph were harvested immediately. The tissues were washed with normal saline and blotted dry with filter paper. All samples were stored at -20°C before analysis.

[2] = tested on: various carcinoma xenograft models; settings: cited from earlier work
[3] = adrenal gland, time 0.25 (15 min) after i.g. 10 mg/kg IMMH-010 maleate
[4] = adrenal gland, time 0.5 (30 min) after i.g. 10 mg/kg IMMH-010 maleate
[5] = adrenal gland, time 4 (4 h) after i.g. 10 mg/kg IMMH-010 maleate
[6] = brain, time 0.25 (15 min) after i.g. 10 mg/kg IMMH-010 maleate
[7] = brain, time 0.5 (30 min) after i.g. 10 mg/kg IMMH-010 maleate
[8] = brain, time 4 (4 h) after i.g. 10 mg/kg IMMH-010 maleate
[9] = heart, time 0.25 (15 min) after i.g. 10 mg/kg IMMH-010 maleate
[10] = heart, time 0.5 (30 min) after i.g. 10 mg/kg IMMH-010 maleate
[11] = heart, time 4 (4 h) after i.g. 10 mg/kg IMMH-010 maleate
[12] = kidney, time 0.25 (15 min) after i.g. 10 mg/kg IMMH-010 maleate
[13] = kidney, time 0.5 (30 min) after i.g. 10 mg/kg IMMH-010 maleate
[14] = kidney, time 4 (4 h) after i.g. 10 mg/kg IMMH-010 maleate
[15] = liver, time 0.25 (15 min) after i.g. 10 mg/kg IMMH-010 maleate
[16] = liver, time 0.5 (30 min) after i.g. 10 mg/kg IMMH-010 maleate
[17] = liver, time 4 (4 h) after i.g. 10 mg/kg IMMH-010 maleate
[18] = lung, time 0.25 (15 min) after i.g. 10 mg/kg IMMH-010 maleate
[19] = lung, time 0.5 (30 min) after i.g. 10 mg/kg IMMH-010 maleate
[20] = lung, time 4 (4 h) after i.g. 10 mg/kg IMMH-010 maleate
[21] = lymph, time 0.25 (15 min) after i.g. 10 mg/kg IMMH-010 maleate
[22] = lymph, time 0.5 (30 min) after i.g. 10 mg/kg IMMH-010 maleate
[23] = lymph, time 4 (4 h) after i.g. 10 mg/kg IMMH-010 maleate
[24] = time 0.25 (15 min) after i.g. 10 mg/kg IMMH-010 maleate
[25] = time 0.5 (30 min) after i.g. 10 mg/kg IMMH-010 maleate
[26] = time 4 (4 h) after i.g. 10 mg/kg IMMH-010 maleate
[27] = spleen, time 0.25 (15 min) after i.g. 10 mg/kg IMMH-010 maleate
[28] = spleen, time 0.5 (30 min) after i.g. 10 mg/kg IMMH-010 maleate
[29] = spleen, time 4 (4 h) after i.g. 10 mg/kg IMMH-010 maleate
[30] = thymus, time 0.25 (15 min) after i.g. 10 mg/kg IMMH-010 maleate
[31] = thymus, time 0.5 (30 min) after i.g. 10 mg/kg IMMH-010 maleate
[32] = thymus, time 4 (4 h) after i.g. 10 mg/kg IMMH-010 maleate

- concentration in adrenal gland [1, 3]: 15.3 ± 10.8 ng/ml or ng/g
- concentration in adrenal gland [1, 4]: 39.7 ± 45.3 ng/ml or ng/g
- concentration in adrenal gland [1, 5]: BLQ
- concentration in brain [1, 6]: BLQ
- concentration in brain [1, 7]: BLQ
- concentration in brain [1, 8]: BLQ
- Kp at 0.25 h ([1]; adrenal gland): 0.5
- Kp at 0.5 h ([1]; adrenal gland): 0.7
- Kp at 0.25 h ([1]; heart): 0.5
- Kp at 0.5 h ([1]; heart): 0.7
- Kp at 0.25 h ([1]; kidney): 2
- Kp at 0.5 h ([1]; kidney): 4.8
- Kp at 4 h ([1]; kidney): 34.6
- Kp at 0.25 h ([1]; liver): 43.8
- Kp at 0.5 h ([1]; liver): 58.2
- Kp at 4 h ([1]; liver): 40.1
- Kp at 0.25 h ([1]; lung): 1.1
- Kp at 0.5 h ([1]; lung): 2
- Kp at 4 h ([1]; lung): 4.4
- Kp at 0.25 h ([1]; lymph): 1.6
- Kp at 0.5 h ([1]; lymph): 6.8
- Kp at 4 h ([1]; lymph): 9.1
- Kp at 0.25 h ([1]; spleen): 0.5
- Kp at 0.5 h ([1]; spleen): 0.9
- Kp at 0.5 h ([1]; thymus): 0.05
- Kp at 4 h ([1]; thymus): 0.5
- concentration in heart [1, 9]: 17.3 ± 11.9 ng/ml or ng/g
- concentration in heart [1, 10]: 39.6 ± 33.7 ng/ml or ng/g
- concentration in heart [1, 11]: BLQ
- concentration in kidney [1, 12]: 64.2 ± 40.4 ng/ml or ng/g
- concentration in kidney [1, 13]: 265 ± 222 ng/ml or ng/g
- concentration in kidney [1, 14]: 168 ± 23 ng/ml or ng/g
- concentration in liver [1, 15]: 1,403 ± 962 ng/ml or ng/g
- concentration in liver [1, 16]: 3,239 ± 2,833 ng/ml or ng/g
- concentration in liver [1, 17]: 195 ± 56 ng/ml or ng/g
- concentration in lung [1, 18]: 35.7 ± 22.8 ng/ml or ng/g
- concentration in lung [1, 19]: 109 ± 104 ng/ml or ng/g
- concentration in lung [1, 20]: 21.4 ± 6.8 ng/ml or ng/g
- concentration in lymph [1, 21]: 51.5 ± 41.0 ng/ml or ng/g
- concentration in lymph [1, 22]: 378 ± 451 ng/ml or ng/g
- concentration in lymph [1, 23]: 44.0 ± 13.9 ng/ml or ng/g
- concentration in plasma [1, 24]: 32.0 ± 25.2 ng/ml or ng/g
- concentration in plasma [1, 25]: 55.7 ± 51.6 ng/ml or ng/g
- concentration in plasma [1, 26]: 4.86 ± 1.39 ng/ml or ng/g
- concentrations in tissues at 12 h [1]: below the LLOQ
- concentration in spleen [1, 27]: 15.1 ± 10.8 ng/ml or ng/g
- concentration in spleen [1, 28]: 48.4 ± 47.9 ng/ml or ng/g
- concentration in spleen [1, 29]: BLQ
- concentration in thymus [1, 30]: BLQ
- concentration in thymus [1, 31]: 2.74 ± 6.12 ng/ml or ng/g
- concentration in thymus [1, 32]: 2.23 ± 4.99 ng/ml or ng/g
SMILES: O=C(O)[C@H](CO)NCc1cc(Cl)c(OCc2cccc(-c3ccccc3)c2Br)cc1OCc1cccnc1 [YPD-29B]
- tissues of main distribution [1]: liver, followed by the lymph, kidney, and lung

- concentration in adrenal gland [1, 3]: 80.8 ± 47.4 ng/ml or ng/g
- concentration in adrenal gland [1, 4]: 204 ± 132 ng/ml or ng/g
- concentration in adrenal gland [1, 5]: 41.3 ± 6.9 ng/ml or ng/g
- concentration in brain [1, 6]: 6.22 ± 0.34 ng/ml or ng/g
- concentration in brain [1, 7]: 3.66 ± 3.35 ng/ml or ng/g
- concentration in brain [1, 8]: BLQ
- Kp at 0.25 h ([1]; adrenal gland): 25
- Kp at 0.5 h ([1]; adrenal gland): 51.1
- Kp at 0.25 h ([1]; brain): 1.9
- Kp at 0.5 h ([1]; brain): 0.9
- Kp at 0.25 h ([1]; heart): 5.4
- Kp at 0.5 h ([1]; heart): 9.5
- Kp at 0.25 h ([1]; liver): 3.8
- Kp at 0.5 h ([1]; liver): 6.4
- Kp at 0.5 h ([1]; lung): 0.3
- Kp at 0.25 h ([1]; lymph): 1.7
- Kp at 0.5 h ([1]; lymph): 21.2
- Kp at 0.25 h ([1]; spleen): 0.9
- Kp at 0.5 h ([1]; spleen): 2
- concentration in heart [1, 9]: 17.3 ± 10.5 ng/ml or ng/g
- concentration in heart [1, 10]: 38.1 ± 25.8 ng/ml or ng/g
- concentration in heart [1, 11]: 1.92 ± 2.66 ng/ml or ng/g
- concentration in kidney [1, 12]: BLQ
- concentration in kidney [1, 13]: BLQ
- concentration in kidney [1, 14]: BLQ
- concentration in liver [1, 15]: 12.4 ± 13.4 ng/ml or ng/g
- concentration in liver [1, 16]: 25.6 ± 19.8 ng/ml or ng/g
- concentration in liver [1, 17]: 6.30 ± 5.77 ng/ml or ng/g
- concentration in lung [1, 18]: BLQ
- concentration in lung [1, 19]: 1.37 ± 3.06 ng/ml or ng/g
- concentration in lung [1, 20]: BLQ
- concentration in lymph [1, 21]: 5.46 ± 5.1 ng/ml or ng/g
- concentration in lymph [1, 22]: 84.6 ± 87.9 ng/ml or ng/g
- concentration in lymph [1, 23]: 12.5 ± 7.1 ng/ml or ng/g
- concentration in plasma [1, 24]: 3.23 ± 2.28 ng/ml or ng/g
- concentration in plasma [1, 25]: 3.99 ± 3.45 ng/ml or ng/g
- concentration in plasma [1, 26]: BLQ
- concentrations in tissues at 12 h [1]: below the LLOQ
- concentration in spleen [1, 27]: 2.98 ± 2.77 ng/ml or ng/g
- concentration in spleen [1, 28]: 8.08 ± 8.51 ng/ml or ng/g
- concentration in spleen [1, 29]: 0.848 ± 1.896 ng/ml or ng/g
- concentration in thymus [1, 30]: BLQ
- concentration in thymus [1, 31]: BLQ
- concentration in thymus [1, 32]: BLQ
SMILES: CC(C)OC(=O)C(CO)NCc1cc(Cl)c(OCc2cccc(-c3ccccc3)c2Br)cc1OCc1cccnc1 (centres unmarked) [IMMH-010, 2-[4-(2-bromo-biphenyl-3-ylmethoxy)-5-chloro-2-(pyridin-3-ylmethoxy)-benzylamino]-3-hydroxy-propionic acid isopropyl ester]
- tissues of main distribution [1]: adrenal gland, followed by the lymph, heart, liver and spleen
- antitumor activity [2]: significant antitumor activity

— publication PMC8256334, “Simultaneous Determination of a Novel PD-L1 Inhibitor, IMMH-010, and Its Active Metabolite, YPD-29B, in Rat Biological Matrices by Polarity-Switching Liquid Chromatography-Tandem Mass Spectrometry: Application to ADME Studies” (Frontiers in Pharmacology, 2021)
